Measured values taken from PubChem BioAssay (NCI).
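Compound exposure: 48 hours, 5 concentrations, 96-well plates. TGI marks complete inhibition of growth.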

Tests used:
Test in all cases: DTP human tumour cell line panel, 48 h
UACC-62 melanoma = system: UACC-62 melanoma
HCT-15 colon = system: HCT-15 colon
SN12C renal = system: SN12C renal
HCT-116 colon = system: HCT-116 colon
SK-MEL-5 melanoma = system: SK-MEL-5 melanoma
CAKI-1 renal = system: CAKI-1 renal
MDA-N = system: MDA-N
HS 578T breast = system: HS 578T breast
OVCAR-3 ovarian = system: OVCAR-3 ovarian
SNB-75 CNS = system: SNB-75 CNS
SK-OV-3 ovarian = system: SK-OV-3 ovarian
MCF7 breast = system: MCF7 breast
HOP-92 NSCLC = system: HOP-92 NSCLC
K-562 leukemia = system: K-562 leukemia
SK-MEL-2 melanoma = system: SK-MEL-2 melanoma
OVCAR-8 ovarian = system: OVCAR-8 ovarian
SW-620 colon = system: SW-620 colon
ACHN renal = system: ACHN renal
HOP-62 NSCLC = system: HOP-62 NSCLC
A498 renal = system: A498 renal
HT29 colon = system: HT29 colon
SF-539 CNS = system: SF-539 CNS
A549 NSCLC = system: A549 NSCLC
DU-145 prostate = system: DU-145 prostate
BT-549 breast = system: BT-549 breast
U251 CNS = system: U251 CNS
T-47D breast = system: T-47D breast
SF-295 CNS = system: SF-295 CNS
NCI-H522 lung = system: NCI-H522 lung
CCRF-CEM leukemia = system: CCRF-CEM leukemia
SNB-19 CNS = system: SNB-19 CNS
IGROV1 ovarian = system: IGROV1 ovarian
MALME-3M melanoma = system: MALME-3M melanoma
MDA-MB-435 = system: MDA-MB-435
SK-MEL-28 melanoma = system: SK-MEL-28 melanoma
RPMI-8226 leukemia = system: RPMI-8226 leukemia
M14 melanoma = system: M14 melanoma
EKVX NSCLC = system: EKVX NSCLC
OVCAR-4 ovarian = system: OVCAR-4 ovarian
LOX IMVI melanoma = system: LOX IMVI melanoma
TK-10 renal = system: TK-10 renal
786-0 renal = system: 786-0 renal
RXF 393 renal = system: RXF 393 renal
MOLT-4 leukemia = system: MOLT-4 leukemia
MDA-MB-231 breast = system: MDA-MB-231 breast
UACC-257 melanoma = system: UACC-257 melanoma
SF-268 CNS = system: SF-268 CNS
KM12 colon = system: KM12 colon
UO-31 renal = system: UO-31 renal
PC-3 prostate = system: PC-3 prostate
OVCAR-5 ovarian = system: OVCAR-5 ovarian
NCI-H460 lung = system: NCI-H460 lung
NCI-H23 lung = system: NCI-H23 lung
COLO 205 colon = system: COLO 205 colon
SR leukemia = system: SR leukemia
NCI-H226 lung = system: NCI-H226 lung
HL-60(TB) leukemia = system: HL-60(TB) leukemia
NCI/ADR-RES ovarian = system: NCI/ADR-RES ovarian
HCC-2998 colon = system: HCC-2998 colon

`COc1cccc(-c2cc(=O)c3cccnc3[nH]2)c1` gave a TGI (UACC-62 melanoma) greater than 100 µM, a TGI (HCT-15 colon) greater than 100 µM and a TGI (SN12C renal) greater than 100 µM. For the same compound, the TGI (HCT-116 colon) was greater than 100 µM, the TGI (SK-MEL-5 melanoma) was 13.1 µM and the TGI (CAKI-1 renal) was greater than 100 µM. For the same compound, the TGI (MDA-N) was 0.0394 µM, the TGI (HS 578T breast) was greater than 100 µM and the TGI (OVCAR-3 ovarian) was greater than 100 µM. It also gave a TGI (SNB-75 CNS) greater than 100 µM, a TGI (SK-OV-3 ovarian) greater than 100 µM and a TGI (MCF7 breast) greater than 100 µM. The TGI (HOP-92 NSCLC) was greater than 100 µM, the TGI (K-562 leukemia) was greater than 100 µM and the TGI (SK-MEL-2 melanoma) was greater than 100 µM. For the same compound, the TGI (OVCAR-8 ovarian) was greater than 100 µM, the TGI (SW-620 colon) was greater than 100 µM and the TGI (ACHN renal) was greater than 100 µM. The TGI (HOP-62 NSCLC) was greater than 100 µM, the TGI (A498 renal) was greater than 100 µM and the TGI (HT29 colon) was 0.561 µM. The TGI (SF-539 CNS) was 0.538 µM, the TGI (A549 NSCLC) was greater than 42.7 µM and the TGI (DU-145 prostate) was greater than 100 µM. It also gave a TGI (BT-549 breast) greater than 100 µM, a TGI (U251 CNS) greater than 100 µM and a TGI (T-47D breast) greater than 100 µM. For the same compound, the TGI (SF-295 CNS) was greater than 100 µM, the TGI (NCI-H522 lung) was greater than 100 µM and the TGI (CCRF-CEM leukemia) was greater than 100 µM. For the same compound, the TGI (SNB-19 CNS) was greater than 100 µM, the TGI (IGROV1 ovarian) was greater than 100 µM and the TGI (MALME-3M melanoma) was greater than 100 µM. The TGI (MDA-MB-435) was 0.0855 µM, the TGI (SK-MEL-28 melanoma) was greater than 100 µM and the TGI (RPMI-8226 leukemia) was greater than 100 µM. For the same compound, the TGI (M14 melanoma) was greater than 100 µM, the TGI (EKVX NSCLC) was greater than 100 µM and the TGI (OVCAR-4 ovarian) was greater than 100 µM. It also gave a TGI (LOX IMVI melanoma) greater than 100 µM, a TGI (TK-10 renal) greater than 100 µM and a TGI (786-0 renal) greater than 100 µM. It also gave a TGI (RXF 393 renal) greater than 100 µM, a TGI (MOLT-4 leukemia) greater than 100 µM and a TGI (MDA-MB-231 breast) greater than 100 µM. It also gave a TGI (UACC-257 melanoma) greater than 100 µM, a TGI (SF-268 CNS) greater than 100 µM and a TGI (KM12 colon) greater than 100 µM. For the same compound, the TGI (UO-31 renal) was greater than 100 µM, the TGI (PC-3 prostate) was greater than 100 µM and the TGI (OVCAR-5 ovarian) was greater than 100 µM.

With `CC(O)=NC(Cc1ccc2ccccc2c1)C(O)=NC(Cc1ccc(Cl)cc1)C(O)=NC(Cc1c[nH]c2ccccc12)C(O)=NC(CO)C(O)=NC(Cc1ccc(O)cc1)C(O)=NC(CCCN=C(N)N)C(O)=NC(CC(C)C)C(O)=NC(CCCN=C(N)N)C(=O)N1CCCC1C(O)=NC(C)C(=N)O` (centres undefined) the TGI (NCI-H460 lung) was greater than 100 µM, the TGI (UACC-62 melanoma) was greater than 100 µM and the TGI (HCT-15 colon) was greater than 100 µM. It also gave a TGI (SN12C renal) greater than 100 µM, a TGI (SK-MEL-5 melanoma) greater than 100 µM and a TGI (CAKI-1 renal) greater than 100 µM. For the same compound, the TGI (MDA-N) was greater than 100 µM, the TGI (HS 578T breast) was greater than 100 µM and the TGI (OVCAR-3 ovarian) was greater than 100 µM. For the same compound, the TGI (SNB-75 CNS) was greater than 100 µM, the TGI (SK-OV-3 ovarian) was 72.3 µM and the TGI (MCF7 breast) was greater than 100 µM. The TGI (HOP-92 NSCLC) was greater than 100 µM, the TGI (K-562 leukemia) was greater than 100 µM and the TGI (SK-MEL-2 melanoma) was 90.9 µM. The TGI (OVCAR-8 ovarian) was greater than 100 µM, the TGI (SW-620 colon) was greater than 100 µM and the TGI (ACHN renal) was greater than 100 µM. The TGI (HOP-62 NSCLC) was greater than 100 µM, the TGI (A498 renal) was greater than 100 µM and the TGI (NCI-H23 lung) was greater than 100 µM. The TGI (HT29 colon) was greater than 100 µM, the TGI (SF-539 CNS) was 99.7 µM and the TGI (COLO 205 colon) was greater than 100 µM. It also gave a TGI (A549 NSCLC) greater than 100 µM, a TGI (DU-145 prostate) greater than 100 µM and a TGI (BT-549 breast) greater than 100 µM. For the same compound, the TGI (SR leukemia) was greater than 100 µM, the TGI (U251 CNS) was 61.4 µM and the TGI (SF-295 CNS) was greater than 100 µM. It also gave a TGI (NCI-H522 lung) of 93 µM, a TGI (CCRF-CEM leukemia) greater than 100 µM and a TGI (SNB-19 CNS) greater than 100 µM. For the same compound, the TGI (IGROV1 ovarian) was greater than 100 µM, the TGI (MALME-3M melanoma) was greater than 100 µM and the TGI (NCI-H226 lung) was 80.7 µM. It also gave a TGI (HL-60(TB) leukemia) greater than 100 µM, a TGI (MDA-MB-435) greater than 100 µM and a TGI (RPMI-8226 leukemia) greater than 100 µM. It also gave a TGI (M14 melanoma) greater than 100 µM, a TGI (NCI/ADR-RES ovarian) greater than 100 µM and a TGI (HCC-2998 colon) greater than 100 µM. For the same compound, the TGI (EKVX NSCLC) was greater than 100 µM, the TGI (OVCAR-4 ovarian) was greater than 100 µM and the TGI (TK-10 renal) was greater than 100 µM. The TGI (786-0 renal) was greater than 100 µM, the TGI (RXF 393 renal) was 92.2 µM and the TGI (MOLT-4 leukemia) was greater than 100 µM. The TGI (MDA-MB-231 breast) was greater than 100 µM, the TGI (UACC-257 melanoma) was greater than 100 µM and the TGI (SF-268 CNS) was greater than 100 µM. It also gave a TGI (KM12 colon) greater than 100 µM, a TGI (UO-31 renal) of 63.1 µM and a TGI (PC-3 prostate) greater than 100 µM. The TGI (OVCAR-5 ovarian) was greater than 100 µM.

Compound `c1cnc2c(c1)Nc1cnncc1S2` has a TGI (NCI-H460 lung) greater than 100 µM, a TGI (UACC-62 melanoma) greater than 100 µM and a TGI (HCT-15 colon) greater than 100 µM. The TGI (SN12C renal) was greater than 100 µM, the TGI (HCT-116 colon) was greater than 100 µM and the TGI (SK-MEL-5 melanoma) was greater than 100 µM. For the same compound, the TGI (CAKI-1 renal) was greater than 100 µM, the TGI (MDA-N) was greater than 100 µM and the TGI (HS 578T breast) was greater than 100 µM. The TGI (OVCAR-3 ovarian) was greater than 100 µM, the TGI (SNB-75 CNS) was 97.8 µM and the TGI (SK-OV-3 ovarian) was greater than 100 µM. The TGI (MCF7 breast) was greater than 100 µM, the TGI (HOP-92 NSCLC) was greater than 100 µM and the TGI (K-562 leukemia) was greater than 100 µM. For the same compound, the TGI (SK-MEL-2 melanoma) was greater than 100 µM, the TGI (OVCAR-8 ovarian) was greater than 100 µM and the TGI (SW-620 colon) was greater than 100 µM. The TGI (ACHN renal) was greater than 100 µM, the TGI (HOP-62 NSCLC) was greater than 100 µM and the TGI (A498 renal) was greater than 100 µM. The TGI (NCI-H23 lung) was greater than 100 µM, the TGI (HT29 colon) was greater than 100 µM and the TGI (SF-539 CNS) was greater than 100 µM. The TGI (COLO 205 colon) was greater than 100 µM, the TGI (A549 NSCLC) was greater than 100 µM and the TGI (DU-145 prostate) was greater than 100 µM. The TGI (SR leukemia) was greater than 100 µM, the TGI (U251 CNS) was greater than 100 µM and the TGI (T-47D breast) was greater than 100 µM. For the same compound, the TGI (SF-295 CNS) was greater than 100 µM, the TGI (NCI-H522 lung) was greater than 100 µM and the TGI (CCRF-CEM leukemia) was greater than 100 µM. It also gave a TGI (SNB-19 CNS) greater than 100 µM, a TGI (IGROV1 ovarian) greater than 100 µM and a TGI (MALME-3M melanoma) greater than 100 µM. The TGI (NCI-H226 lung) was greater than 100 µM, the TGI (HL-60(TB) leukemia) was greater than 100 µM and the TGI (MDA-MB-435) was greater than 100 µM. It also gave a TGI (SK-MEL-28 melanoma) greater than 100 µM, a TGI (RPMI-8226 leukemia) greater than 100 µM and a TGI (M14 melanoma) greater than 100 µM. For the same compound, the TGI (NCI/ADR-RES ovarian) was greater than 100 µM, the TGI (HCC-2998 colon) was greater than 100 µM and the TGI (EKVX NSCLC) was greater than 100 µM. For the same compound, the TGI (OVCAR-4 ovarian) was greater than 100 µM, the TGI (LOX IMVI melanoma) was greater than 100 µM and the TGI (TK-10 renal) was greater than 100 µM. For the same compound, the TGI (786-0 renal) was greater than 100 µM, the TGI (RXF 393 renal) was greater than 100 µM and the TGI (MOLT-4 leukemia) was greater than 100 µM. The TGI (MDA-MB-231 breast) was greater than 100 µM, the TGI (UACC-257 melanoma) was greater than 100 µM and the TGI (SF-268 CNS) was greater than 100 µM. The TGI (KM12 colon) was greater than 100 µM, the TGI (UO-31 renal) was greater than 100 µM and the TGI (PC-3 prostate) was greater than 100 µM. It also gave a TGI (OVCAR-5 ovarian) greater than 100 µM.
